Source: ChEMBL document CHEMBL4699480 (J Med Chem, 2020)
The source made the active and inactive calls. No cut-off for these calls is given here.

Key:
[1] = system: DLD-1; experiment: Cytotoxicity in human DLD-1 cells assessed as reduction in cell viability incubated for 72 hrs by MTT assay; type: functional, cell-based; details: DLD-1, 72 h
[2] = molecular target: T1, UDP-N-acetylglucosamine--dolichyl-phosphate N-acetylglucosaminephosphotransferase (Homo sapiens, UniProt Q9H3H5); experiment: Inhibition of human DPAGT1 expressed in HEK293 (Expi293) cells incubated for 2 hrs using UDP-GlcN-Cg-FITC and alpha-dihydroundecap-renyl phosphate by reversed-phase HPLC analysis; type: cell-based
T1 sequence (Q9H3H5 whole entry): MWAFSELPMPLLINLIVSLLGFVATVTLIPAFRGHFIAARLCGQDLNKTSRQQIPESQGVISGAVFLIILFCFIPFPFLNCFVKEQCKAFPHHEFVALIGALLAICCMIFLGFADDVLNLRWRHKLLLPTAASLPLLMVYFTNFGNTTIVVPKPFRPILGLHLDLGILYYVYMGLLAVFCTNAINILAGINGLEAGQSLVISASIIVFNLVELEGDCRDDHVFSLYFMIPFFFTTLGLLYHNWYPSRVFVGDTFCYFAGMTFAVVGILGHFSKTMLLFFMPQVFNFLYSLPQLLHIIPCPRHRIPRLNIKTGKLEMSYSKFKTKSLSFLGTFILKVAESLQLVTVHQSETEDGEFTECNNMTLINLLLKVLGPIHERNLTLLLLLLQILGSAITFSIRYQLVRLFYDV

[3] = Synergistic cytotoxicity in human PD002 cells assessed as FIC at 0.1 uM incubated for 72 hrs in presence of 0.63 uM paclitaxel by IncuCyte live cell analysis imaging system based assay; type: functional
[4] = system: PD002; experiment: Inhibition of cell migration in human PD002 cells at 0.1 uM incubated for 0.5 hrs by crystal violet staining based Boyden chamber assay; type: functional
[5] = Synergistic cytotoxicity in human PD002 cells assessed as FIC at 2 uM incubated for 72 hrs in presence of 0.31 uM paclitaxel by IncuCyte live cell analysis imaging system based assay; type: functional
[6] = system: PD002; experiment: Inhibition of DPAGT1 protein expression in human PD002 cells at 0.2 uM incubated for 24 hrs by Western blot analysis; type: functional, cell-based
[7] = system: KB; experiment: Cytotoxicity in human KB cells assessed as reduction in cell viability incubated for 72 hrs by MTT assay; type: functional, cell-based
[8] = system: HCT-116; experiment: Inhibition of E-cadherin protein expression in human HCT-116 cells at 0 to 2 uM incubated for 24 hrs by Western blot analysis; type: functional, cell-based; details: dose microM 0-2, time […]
[9] = molecular target: T2, UDP-N-acetylglucosamine--dolichyl-phosphate N-acetylglucosaminephosphotransferase (Homo sapiens) (UniProt Q9H3H5); experiment: Inhibition of DPAGT1 in human SiHa cells assessed as reduction in snail protein expression incubated for 24 hrs by Western blot assay; type: cell-based
T2 sequence (whole entry): T1 sequence (Q9H3H5 whole entry)

[10] = Inhibition of cell proliferation in human PD002 cells incubated for 72 hrs; type: functional
[11] = system: PANC-1; experiment: Inhibition of E-cadherin protein expression in human PANC-1 cells at 0 to 2 uM incubated for 24 hrs by Western blot analysis; type: functional, cell-based; details: dose microM 0-2, time […]
[12] = system: PD002; experiment: Inhibition of DPAGT1 mRNA expression in human PD002 cells at 0 to 10 uM incubated for 24 hrs by RT-qPCR analysis; type: functional, cell-based; details: dose microM 0-10, time […]

## CO[C@H]1[C@@H](O)[C@H](n2ccc(=O)[nH]c2=O)O[C@@H]1[C@@H](O[C@H]1OC(C(=O)NCc2ccc(N3CCC(Oc4ccc(OC(F)(F)F)cc4)CC3)cc2)=C[C@H](O)[C@@H]1O)C(N)=O
[1]
  IC50: 25 µM
[2]
  IC50: 0.2 µM
[3]
  FIC: 0.5
[4]
  inhibition: Active
[5]
  FIC: 0.26
[6]
  inhibition: Active
[7]
  IC50: 35 µM
[8]
  inhibition: inactive
[9]
  inhibition: Active
[10]
  inhibition (INH): 20%
[11]
  inhibition: inactive
[12]
  inhibition: inactive
